Test results reported in patent US20100040762A1 (Plantextrakt GmbH & Co. KG, priority 2006, published 2010).

Key:
[1] = system: isolated rat brain hippocampal section preparation; assay: isolated rat brain hippocampal section preparation, extra-cellular field potentials after electrical stimulation; conditions: in vitro, single stimulus excitation and theta-burst stimulation
Protocol: The measured field potentials were recorded after a single stimulus excitation and theta-burst stimulation.

[2] = system: Fischer-344 rats; assay: tele-stereo-EEG on unrestrained rats; format: in vivo, rat; conditions: oral administration; frontal cortex, hippocampus, striatum, reticular formation
Protocol: Supplementing in-vivo experiments on unrestrained rats by means of quantitative detection of the electric brain activity (tele-stereo-EEG). Observed were adult, unrestrained Fischer-344 rats with implanted 4 bipolar concentric brain electrodes. A continuous in-vivo analysis of the electric field potential (tele-stereo-EEG) of the frontal cortex, hippocampus, striatum, and reticular formation was performed analogous to Dimpfel et. al 1986. Additionally, the mobility of the rats was measured using a video tracking system by GJB […] GmbH, […], Germany. […] The “tele-stereo-EEG” model on unrestrained rats was chosen as the in-vivo model to validate results that were obtained following the rat-hippocampus in-vitro experiments, in particular the crossing of the blood-brain barrier for the described substances.

SMILES | influence on hippocampal electrical activity [1] | electric field potentials (tele-stereo-EEG) [2]
N[C@@H](CCC(=O)O)C(=O)O [Glutamic acid, glutamic acid] | stimulating substances | –
O=C(O)[C@]1(O)C[C@@H](O)[C@@H](O)[C@H](O)C1 [quinic acid] | stimulating substances | principally contribute to the measured results
CCNC(=O)CC[C@H](N)C(=O)O [theanine, 5-N-ethyl-L-glutamine] | opposite effect | principally contribute to the measured results
O=C(O[C@@H]1C[C@@](O)(C(=O)O)C[C@@H](O)[C@@H]1O)c1cc(O)c(O)c(O)c1 [theogallin, 5-galloyl quinic acid] | stimulating substances | principally contribute to the measured results
